The results in this text go back to patent US9987399B2, “Non-biodegradable stent comprising a biodegradable coating and method of coating the same” (Nanyang Technological University, priority 2007, dated 2018).

SMILES strings stand for the structures.

For the test, the system named is platelets (platelet rich plasma). Kind of test: In vitro thrombogenicity/platelet adhesion, dynamic method with I-125 labeled PRP. The format is cell-based, Human. The following applies: 10% loading in PLGA 80/20 coating on metal strips, 2 hours perfusion at 40 mL min^−1; FIG. 5. As for the experimental part:
Metal strips with coatings of PLGA 80/20 containing varying amounts of triflusal (4, 7 and 10 wt %) were tested for thrombogenicity/platelet adhesion using a dynamic method. Human blood was collected and anti-coagulated. Platelet rich plasma (PRP) was then prepared from the blood, and labeled with radioactive iodine, I-125. The test samples were exposed to this labeled PRP for 2 hours under perfusion at a flow rate of 40 mL min^−1. Radioscintigraphy was then used on the washed and rinsed metal-coated strips, to count the number of adhered platelets.

As to `CC(=O)Oc1cc(C(F)(F)F)ccc1C(=O)O` [triflusal], the platelet adhesion entry is reported as “effective at reducing platelet adhesion”.
